According to patent publication US20230117470A1, “SUBSTITUTED PYRAZOLE COMPOUNDS AS TOLL RECEPTOR INHIBITORS” (BRISTOL-MYERS SQUIBB COMPANY, priority 2019, published 2023):

Legend:
Format in all cases: cell-based
human TLR7 = molecular target: T1, human TLR7 (Homo sapiens, UniProt Q9NYK1); assay: TLR7 inhibition reporter assay (HEK-Blue cells, SEAP reporter, gardiquimod stimulation); settings: HEK-Blue cells overexpressing human TLR7, SEAP reporter, gardiquimod 7.5 μM
T1 construct: host or cells: HEK-Blue cells
T1 sequence (Q9NYK1 27-1049): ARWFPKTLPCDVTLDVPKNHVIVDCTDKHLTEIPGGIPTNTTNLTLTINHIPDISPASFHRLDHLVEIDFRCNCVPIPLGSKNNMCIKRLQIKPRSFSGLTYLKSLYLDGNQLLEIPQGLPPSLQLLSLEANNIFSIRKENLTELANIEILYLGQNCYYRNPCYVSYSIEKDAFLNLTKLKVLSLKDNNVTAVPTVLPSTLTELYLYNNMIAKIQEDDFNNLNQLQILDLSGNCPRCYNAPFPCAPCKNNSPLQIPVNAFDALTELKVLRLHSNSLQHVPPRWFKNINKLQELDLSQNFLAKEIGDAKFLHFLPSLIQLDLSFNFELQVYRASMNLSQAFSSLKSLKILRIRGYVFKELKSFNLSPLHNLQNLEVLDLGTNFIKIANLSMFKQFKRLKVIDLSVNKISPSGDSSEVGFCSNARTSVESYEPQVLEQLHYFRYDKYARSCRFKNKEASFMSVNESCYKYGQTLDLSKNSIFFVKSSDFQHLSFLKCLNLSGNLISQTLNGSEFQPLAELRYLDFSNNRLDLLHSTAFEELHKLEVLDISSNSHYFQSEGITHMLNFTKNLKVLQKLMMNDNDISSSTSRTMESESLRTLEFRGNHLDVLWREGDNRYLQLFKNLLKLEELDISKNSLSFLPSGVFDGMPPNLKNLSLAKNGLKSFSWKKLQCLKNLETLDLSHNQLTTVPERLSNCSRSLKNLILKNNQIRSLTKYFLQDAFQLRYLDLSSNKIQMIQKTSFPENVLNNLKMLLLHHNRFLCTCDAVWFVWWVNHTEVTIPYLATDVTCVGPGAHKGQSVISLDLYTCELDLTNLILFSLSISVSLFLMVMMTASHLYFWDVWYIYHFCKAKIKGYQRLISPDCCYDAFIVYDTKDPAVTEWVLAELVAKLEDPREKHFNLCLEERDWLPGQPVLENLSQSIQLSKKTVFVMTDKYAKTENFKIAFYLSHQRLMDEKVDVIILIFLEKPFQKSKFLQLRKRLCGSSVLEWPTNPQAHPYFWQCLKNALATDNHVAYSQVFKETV
Procedure, shortened: (§1)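 Percent inhibition of agonist-induced SEAP, set between agonist+DMSO wells and known-inhibitor wells, after 22 h at 37° C. Compounds (0.05 nM-50 μM final) were added 30 min at room temperature before ligand: gardiquimod 7.5 μM for TLR7, R848 15.9 μM for TLR8, ODN2006 5 nM for TLR9. Human receptors overexpressed in HEK-Blue reporter cells.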

human TLR8 = molecular target: T2, human TLR8 (Homo sapiens, UniProt Q9NR97); assay: TLR8 inhibition reporter assay (HEK-Blue cells, SEAP reporter, R848 stimulation); settings: HEK-Blue cells overexpressing human TLR8, SEAP reporter, R848 15.9 μM
T2 construct: host or cells: HEK-Blue cells
T2 sequence (Q9NR97 27-1041): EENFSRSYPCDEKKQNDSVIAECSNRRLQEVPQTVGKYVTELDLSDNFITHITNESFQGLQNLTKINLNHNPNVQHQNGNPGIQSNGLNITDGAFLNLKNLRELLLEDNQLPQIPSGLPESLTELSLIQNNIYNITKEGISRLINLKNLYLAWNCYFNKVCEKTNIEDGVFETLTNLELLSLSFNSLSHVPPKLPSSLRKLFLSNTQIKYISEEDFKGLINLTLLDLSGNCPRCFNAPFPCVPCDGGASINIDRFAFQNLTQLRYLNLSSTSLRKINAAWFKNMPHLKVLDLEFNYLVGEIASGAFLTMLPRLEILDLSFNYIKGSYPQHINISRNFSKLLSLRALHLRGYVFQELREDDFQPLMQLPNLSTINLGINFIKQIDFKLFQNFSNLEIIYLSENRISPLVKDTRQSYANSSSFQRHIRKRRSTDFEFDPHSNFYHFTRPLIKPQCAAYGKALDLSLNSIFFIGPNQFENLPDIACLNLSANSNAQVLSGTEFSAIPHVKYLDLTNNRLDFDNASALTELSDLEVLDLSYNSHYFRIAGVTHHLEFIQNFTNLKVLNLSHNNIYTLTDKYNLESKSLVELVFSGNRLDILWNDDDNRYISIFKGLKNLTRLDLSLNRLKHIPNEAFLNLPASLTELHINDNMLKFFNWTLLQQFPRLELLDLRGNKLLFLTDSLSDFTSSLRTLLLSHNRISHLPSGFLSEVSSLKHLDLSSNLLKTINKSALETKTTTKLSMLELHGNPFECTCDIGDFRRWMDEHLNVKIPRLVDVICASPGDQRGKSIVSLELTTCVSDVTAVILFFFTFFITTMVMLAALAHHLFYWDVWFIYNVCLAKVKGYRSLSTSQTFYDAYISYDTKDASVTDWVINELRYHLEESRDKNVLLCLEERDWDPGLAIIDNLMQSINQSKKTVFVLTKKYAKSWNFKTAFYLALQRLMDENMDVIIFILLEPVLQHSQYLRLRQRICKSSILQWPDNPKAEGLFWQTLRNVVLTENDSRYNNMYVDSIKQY
Procedure, shortened: as §1

human TLR9 = molecular target: T3, human TLR9 (Homo sapiens, UniProt Q9NR96); assay: TLR9 inhibition reporter assay (HEK-Blue cells, SEAP reporter, ODN2006 stimulation); settings: HEK-Blue cells overexpressing human TLR9, SEAP reporter, ODN2006 5 nM
T3 construct: host or cells: HEK-Blue cells
T3 sequence (Q9NR96 26-1032): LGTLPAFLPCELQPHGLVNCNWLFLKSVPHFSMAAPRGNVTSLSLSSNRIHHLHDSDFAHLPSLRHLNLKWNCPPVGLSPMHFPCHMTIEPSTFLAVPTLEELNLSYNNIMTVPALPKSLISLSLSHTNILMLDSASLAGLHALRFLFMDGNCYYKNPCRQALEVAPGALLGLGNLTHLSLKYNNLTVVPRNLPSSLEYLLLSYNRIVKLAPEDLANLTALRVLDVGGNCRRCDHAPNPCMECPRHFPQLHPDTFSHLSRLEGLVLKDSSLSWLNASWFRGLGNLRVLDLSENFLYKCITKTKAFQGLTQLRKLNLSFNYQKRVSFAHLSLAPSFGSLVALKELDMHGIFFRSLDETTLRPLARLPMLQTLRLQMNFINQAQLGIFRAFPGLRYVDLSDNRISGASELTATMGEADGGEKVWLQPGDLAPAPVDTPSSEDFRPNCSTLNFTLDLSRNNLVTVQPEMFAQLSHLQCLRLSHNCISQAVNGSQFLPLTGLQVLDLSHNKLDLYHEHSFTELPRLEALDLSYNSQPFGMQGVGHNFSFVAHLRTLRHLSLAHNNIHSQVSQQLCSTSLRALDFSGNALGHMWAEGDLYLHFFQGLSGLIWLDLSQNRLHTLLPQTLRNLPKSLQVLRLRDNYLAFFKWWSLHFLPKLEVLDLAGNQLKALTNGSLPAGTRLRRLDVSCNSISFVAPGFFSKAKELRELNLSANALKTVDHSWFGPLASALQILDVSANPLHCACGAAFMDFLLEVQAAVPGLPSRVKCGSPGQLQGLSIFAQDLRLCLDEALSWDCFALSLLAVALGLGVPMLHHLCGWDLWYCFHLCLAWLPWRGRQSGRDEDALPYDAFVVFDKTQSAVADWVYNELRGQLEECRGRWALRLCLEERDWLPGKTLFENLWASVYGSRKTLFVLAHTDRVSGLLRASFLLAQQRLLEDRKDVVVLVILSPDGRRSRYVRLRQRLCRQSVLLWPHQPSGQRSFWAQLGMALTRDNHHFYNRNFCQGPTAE
Procedure, shortened: as §1

| IC50 (human TLR7) [nM] | IC50 (human TLR8) [nM] | IC50 (human TLR9) [nM] | SMILES |
| --- | --- | --- | --- |
| 1.36 | 18.7 | 25400 | Cc1cc(-c2[nH]nc(-c3cnc(N(C)C)cn3)c2C(C)C)cn2ncnc12 [Example 236] |
| 1.34 | 0.7 | 6420 | Cc1cc(-c2[nH]nc(C(=O)N[C@H]3CC[C@@H](NC4COC4)CC3)c2C(C)C)cn2ncnc12 [Example 86] |
| 7.77 | 1.53 | 12300 | Cc1cc(-c2[nH]nc(C3CCC(N(C)C(=O)C4CNC4)CC3)c2C(C)C)cn2ncnc12 (stereo not drawn) [compound 301] |
| 0.35 | 0.41 | 6780 | Cc1cc(-c2[nH]nc(-c3cnc(N)cn3)c2C(C)C)cn2ncnc12 [Example 226] |
| 9.49 | 0.45 | 42600 | Cc1cc(-c2[nH]nc(C3CCC(NCC4(C)COC4)CC3)c2C(C)C)cn2ncnc12 (single isomer, unassigned) [Example 281] |
| 0.92 | 0.39 | 10100 | Cc1cc(-c2[nH]nc(C(=O)NC3CCN(C4COC4)CC3)c2CC(F)(F)F)cn2ncnc12 [Example 200] |
| 19.7 | 0.92 | 16300 | COCC(C)N[C@H]1CC[C@H](NC(=O)c2n[nH]c(-c3cc(C)c4ncnn4c3)c2C(C)C)CC1 (stereo partly drawn) [Example 146] |
| 8.27 | 7.61 | 42400 | COc1cc(-c2[nH]nc(-c3ccc(C4CN(CC(C)(C)O)C4)cc3)c2C(C)C)cn2ncnc12 [Example 337] |
| 26.9 | 156 | > 50000 | COc1cc(-c2[nH]nc(-c3cnc(C4CCN(C(=O)CN(C)C)CC4)cn3)c2C(C)C)cn2ncnc12 [Example 403] |
| 11.8 | 9.93 | > 50000 | Cc1cc(-c2[nH]nc(C(=O)N[C@H]3CC[C@H](NC(C)C(C)(C)C)CC3)c2C(C)C)cn2ncnc12 (stereo partly drawn) [Example 148] |
| 4.19 | 7.87 | > 50000 | Cc1cc(-c2[nH]nc(-c3cccc(N)c3)c2C(C)C)cn2ncnc12 [Example 232] |
| 6.33 | 238 | > 50000 | Cc1cc(-c2[nH]nc(C(=O)NC3CCN(CCN(C)C)CC3)c2C(C)C)cn2ncnc12 [Example 83] |
| 11.1 | 9.06 | 5880 | COc1cc(-c2[nH]nc(-c3cnc(C4CCN(C)CC4)cn3)c2C(C)C)cn2ncnc12 [Example 381] |
| 1.34 | 7.36 | 14400 | CNC1CCC(NC(=O)c2n[nH]c(-c3cc(C)c4ncnn4c3)c2C(C)C)CC1 (stereo not drawn) [Example 129] |
| 8.79 | 4.78 | 6870 | Cc1cc(-c2[nH]nc(C(=O)NC3CN(Cc4ncn(C)n4)C3)c2C(C)C)cn2ncnc12 [Example 159] |
| 2.92 | 0.56 | 6840 | Cc1cc(-c2[nH]nc(C(=O)NC[C@H]3CC[C@H](N)CC3)c2C(C)C)cn2ncnc12 [Example 47] |
| 2.47 | 5.42 | 30900 | Cc1cc(-c2[nH]nc(C(=O)NC3CCN(C)CC3)c2C(C)C)cn2ncnc12 [Example 8] |
| 13.6 | 3.19 | 4830 | Cc1cc(-c2[nH]nc(-c3ccc(C4CN(C(=O)CN(C)C)C4)cc3)c2C(C)C)cn2ncnc12 [Example 334, 2-(dimethylamino)-1-(3-(4-(4-isopropyl-5-(8-methyl-[1,2,4]triazolo[1,5-a]pyridin-6-yl)-1H-pyrazol-3-yl)phenyl)azetidin-1-yl)ethan-1-one] |
| 10.1 | 31.1 | 45600 | COc1cc(-c2[nH]nc(-c3ccc(C4CN(CCS(C)(=O)=O)C4)cc3)c2C(C)C)cn2ncnc12 [Example 338] |
| 1.59 | 20.6 | 9400 | Cc1cc(-c2[nH]nc(C(=O)N[C@H]3CCCN(C(C)C)C3)c2C(C)C)cn2ncnc12 [Example 163] |
| 10.6 | 2.68 | 45300 | Cc1cc(-c2[nH]nc(-c3ncc4c(n3)CCN(C3COC3)C4)c2C(C)C)cn2ncnc12 [Example 251] |
| 23.5 | 13.8 | > 50000 | COc1cc(-c2[nH]nc(-c3nc4c(s3)CN(C(C)C)CC4)c2C(C)C)cn2ncnc12 [Example 259] |
| 2.9 | 4.22 | 18000 | Cc1cc(-c2[nH]nc(C(=O)N[C@@H]3CCCNC3)c2C(C)C)cn2ncnc12 [Example 52] |
| 3.76 | 6.23 | 6250 | Cc1cc(-c2c(C(C)C)c(C(=O)NC3CCN(CC(F)(F)F)CC3)nn2CC(F)(F)F)cn2ncnc12 [Example 175, 4-isopropyl-5-(8-methyl-[1,2,4]triazolo[1,5-a]pyridin-6-yl)-1-(2,2,2-trifluoroethyl)-N-(1-(2,2,2-trifluoroethyl)piperidin-4-yl)-1H-pyrazole-3-carboxamide] |
